The source of these data is article PMC4457528, “Identification of Novel Small Molecule Inhibitors of Oncogenic RET Kinase” (PLoS ONE, 2015).

Where two headings read alike, the source gives them in different places.

Assay in all cases: KinomeScan kinase panel, single concentration 10 µM
Common to all, as to assay type: binding

The target of experiment [1] is T1, KinomeScan kinase panel (Homo sapiens, UniProt Q86V86).
T1 construct: purchased DiscoveRx (KinomeScan)
Conditions: PIM3, 10 µM; read-out: score (%).

For experiment [2], the target named is T2, KinomeScan kinase panel (Homo sapiens, UniProt Q8IVH8).
T2 construct: purchased DiscoveRx (KinomeScan)
T2 sequence (Q8IVH8 1-894): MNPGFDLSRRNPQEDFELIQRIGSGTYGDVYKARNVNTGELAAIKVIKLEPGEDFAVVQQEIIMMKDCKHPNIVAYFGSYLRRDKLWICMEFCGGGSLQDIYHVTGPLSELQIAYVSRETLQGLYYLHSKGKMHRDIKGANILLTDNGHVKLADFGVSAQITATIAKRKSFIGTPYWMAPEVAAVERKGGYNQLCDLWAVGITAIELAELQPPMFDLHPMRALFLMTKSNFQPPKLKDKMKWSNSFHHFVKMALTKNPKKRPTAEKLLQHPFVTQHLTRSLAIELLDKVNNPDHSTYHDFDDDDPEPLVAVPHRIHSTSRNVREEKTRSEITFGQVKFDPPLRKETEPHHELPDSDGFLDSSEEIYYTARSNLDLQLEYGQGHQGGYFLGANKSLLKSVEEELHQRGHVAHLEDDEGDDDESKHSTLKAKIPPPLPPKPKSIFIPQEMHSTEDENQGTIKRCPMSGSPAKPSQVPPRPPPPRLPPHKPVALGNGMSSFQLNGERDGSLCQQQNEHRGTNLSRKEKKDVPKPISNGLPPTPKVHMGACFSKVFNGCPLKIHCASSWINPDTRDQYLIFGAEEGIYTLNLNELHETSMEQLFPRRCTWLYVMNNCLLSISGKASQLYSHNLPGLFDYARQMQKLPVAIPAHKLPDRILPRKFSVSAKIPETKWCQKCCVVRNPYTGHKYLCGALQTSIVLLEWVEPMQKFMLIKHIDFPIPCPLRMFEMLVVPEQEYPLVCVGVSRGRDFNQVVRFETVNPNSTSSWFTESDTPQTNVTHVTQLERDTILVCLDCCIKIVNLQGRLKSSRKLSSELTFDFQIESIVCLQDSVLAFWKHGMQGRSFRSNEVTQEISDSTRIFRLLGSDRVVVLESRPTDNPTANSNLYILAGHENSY
The conditions noted are these: MAP4K3, 10 µM.

Experiment [3] deals with T3, KinomeScan kinase panel (Homo sapiens, UniProt Q16539).
T3 construct: purchased DiscoveRx (KinomeScan)
The conditions noted are these: p38-alpha, 10 µM.

Experiment [4] addresses T4, KinomeScan kinase panel (Homo sapiens, UniProt P28482).
T4 construct: purchased DiscoveRx (KinomeScan)
The conditions noted are these: ERK2, 10 µM; read-out: score (%).

Experiment [5] deals with T5, KinomeScan kinase panel (Homo sapiens, UniProt Q8IW41).
T5 construct: purchased DiscoveRx (KinomeScan)
T5 sequence (Q8IW41 1-473): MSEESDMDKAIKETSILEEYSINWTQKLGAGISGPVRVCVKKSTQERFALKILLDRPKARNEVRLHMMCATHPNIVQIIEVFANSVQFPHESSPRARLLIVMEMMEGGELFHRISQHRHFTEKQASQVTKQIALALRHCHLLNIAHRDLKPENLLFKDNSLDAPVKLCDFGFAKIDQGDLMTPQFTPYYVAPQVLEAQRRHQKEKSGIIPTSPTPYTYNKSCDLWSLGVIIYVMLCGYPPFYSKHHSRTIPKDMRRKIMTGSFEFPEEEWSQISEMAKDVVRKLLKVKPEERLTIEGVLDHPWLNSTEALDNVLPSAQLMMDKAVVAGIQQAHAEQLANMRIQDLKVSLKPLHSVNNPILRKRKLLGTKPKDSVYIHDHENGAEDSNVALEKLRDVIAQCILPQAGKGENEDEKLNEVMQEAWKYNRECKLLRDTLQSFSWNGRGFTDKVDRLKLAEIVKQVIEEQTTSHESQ
Conditions: MAPKAPK5, 10 µM; read-out: score (%).

The target in experiment [6] is T6, KinomeScan kinase panel (Homo sapiens, UniProt O75582).
T6 construct: purchased DiscoveRx (KinomeScan)
Conditions: 10 µM, read-out: score (%).

In experiment [7] the target is T7, KinomeScan kinase panel (Homo sapiens, UniProt Q9Y2H1).
T7 construct: purchased DiscoveRx (KinomeScan)
Conditions: NDR2, 10 µM; read-out: score (%).

For experiment [8], the target named is T8, KinomeScan kinase panel (Homo sapiens, UniProt P36888, D835Y).
T8 construct: purchased DiscoveRx (KinomeScan)
T8 sequence (P36888 27-993 D835Y): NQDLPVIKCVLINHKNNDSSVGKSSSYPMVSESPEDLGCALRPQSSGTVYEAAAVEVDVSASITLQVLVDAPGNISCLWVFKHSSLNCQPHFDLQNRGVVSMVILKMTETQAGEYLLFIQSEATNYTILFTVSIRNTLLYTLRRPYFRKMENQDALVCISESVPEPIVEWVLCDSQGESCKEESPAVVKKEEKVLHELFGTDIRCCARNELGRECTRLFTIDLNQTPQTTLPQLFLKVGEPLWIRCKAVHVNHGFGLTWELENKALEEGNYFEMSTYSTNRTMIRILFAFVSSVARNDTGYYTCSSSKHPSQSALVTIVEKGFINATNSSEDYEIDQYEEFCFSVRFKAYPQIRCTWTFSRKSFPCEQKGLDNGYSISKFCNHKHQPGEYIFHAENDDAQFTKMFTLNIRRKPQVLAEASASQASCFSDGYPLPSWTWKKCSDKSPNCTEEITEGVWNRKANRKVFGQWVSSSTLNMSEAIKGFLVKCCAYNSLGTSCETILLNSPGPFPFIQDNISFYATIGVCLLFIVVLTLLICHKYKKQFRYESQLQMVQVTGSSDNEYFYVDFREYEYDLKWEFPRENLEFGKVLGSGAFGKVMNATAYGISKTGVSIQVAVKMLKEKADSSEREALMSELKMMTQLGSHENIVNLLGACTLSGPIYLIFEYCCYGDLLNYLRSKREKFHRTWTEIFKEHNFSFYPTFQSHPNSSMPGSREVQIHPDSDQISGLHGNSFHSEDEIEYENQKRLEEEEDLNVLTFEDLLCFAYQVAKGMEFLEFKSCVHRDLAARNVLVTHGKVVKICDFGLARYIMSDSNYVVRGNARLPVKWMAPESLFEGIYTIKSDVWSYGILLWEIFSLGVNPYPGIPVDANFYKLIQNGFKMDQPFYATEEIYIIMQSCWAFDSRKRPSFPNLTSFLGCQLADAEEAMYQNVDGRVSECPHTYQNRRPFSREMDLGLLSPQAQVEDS
Conditions: FLT3(D835Y), 10 µM; read-out: score (%).

Experiment [9] deals with T9, KinomeScan kinase panel (Homo sapiens, UniProt P00519, F317I).
T9 construct: purchased DiscoveRx (KinomeScan)
Conditions: 10 µM, read-out: score (%).

Experiment [10] addresses T10, KinomeScan kinase panel (Homo sapiens, UniProt P37173).
T10 construct: purchased DiscoveRx (KinomeScan)
Conditions: read-out: score (%).

Setting [11] is: kinase RPS6KA5(Kin.Dom.1-N-terminal).
Where [12] appears, read: kinase RPS6KA5(Kin.Dom.2-C-terminal).

T6 sequence (O75582 whole entry): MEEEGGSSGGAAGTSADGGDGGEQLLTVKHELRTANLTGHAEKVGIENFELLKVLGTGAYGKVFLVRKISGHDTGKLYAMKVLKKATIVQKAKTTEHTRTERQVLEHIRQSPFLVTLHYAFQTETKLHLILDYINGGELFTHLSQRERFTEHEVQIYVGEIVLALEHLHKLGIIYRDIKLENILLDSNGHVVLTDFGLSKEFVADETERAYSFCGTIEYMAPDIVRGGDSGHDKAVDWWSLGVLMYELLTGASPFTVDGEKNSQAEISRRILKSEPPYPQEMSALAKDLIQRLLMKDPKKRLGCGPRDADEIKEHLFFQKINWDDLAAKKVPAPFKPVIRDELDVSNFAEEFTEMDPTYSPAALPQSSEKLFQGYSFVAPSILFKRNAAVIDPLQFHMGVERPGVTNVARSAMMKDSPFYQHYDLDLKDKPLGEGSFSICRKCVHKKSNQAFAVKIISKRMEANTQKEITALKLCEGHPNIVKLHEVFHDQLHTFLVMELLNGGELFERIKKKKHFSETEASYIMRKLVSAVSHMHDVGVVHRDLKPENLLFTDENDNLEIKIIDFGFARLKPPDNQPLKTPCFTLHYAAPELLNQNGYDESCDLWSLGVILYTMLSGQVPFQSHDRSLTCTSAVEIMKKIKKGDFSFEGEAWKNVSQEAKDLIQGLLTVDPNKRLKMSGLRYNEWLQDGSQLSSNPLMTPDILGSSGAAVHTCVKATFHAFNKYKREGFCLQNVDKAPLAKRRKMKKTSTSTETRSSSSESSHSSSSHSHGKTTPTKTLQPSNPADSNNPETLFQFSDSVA
T9 sequence (P00519 whole entry F317I): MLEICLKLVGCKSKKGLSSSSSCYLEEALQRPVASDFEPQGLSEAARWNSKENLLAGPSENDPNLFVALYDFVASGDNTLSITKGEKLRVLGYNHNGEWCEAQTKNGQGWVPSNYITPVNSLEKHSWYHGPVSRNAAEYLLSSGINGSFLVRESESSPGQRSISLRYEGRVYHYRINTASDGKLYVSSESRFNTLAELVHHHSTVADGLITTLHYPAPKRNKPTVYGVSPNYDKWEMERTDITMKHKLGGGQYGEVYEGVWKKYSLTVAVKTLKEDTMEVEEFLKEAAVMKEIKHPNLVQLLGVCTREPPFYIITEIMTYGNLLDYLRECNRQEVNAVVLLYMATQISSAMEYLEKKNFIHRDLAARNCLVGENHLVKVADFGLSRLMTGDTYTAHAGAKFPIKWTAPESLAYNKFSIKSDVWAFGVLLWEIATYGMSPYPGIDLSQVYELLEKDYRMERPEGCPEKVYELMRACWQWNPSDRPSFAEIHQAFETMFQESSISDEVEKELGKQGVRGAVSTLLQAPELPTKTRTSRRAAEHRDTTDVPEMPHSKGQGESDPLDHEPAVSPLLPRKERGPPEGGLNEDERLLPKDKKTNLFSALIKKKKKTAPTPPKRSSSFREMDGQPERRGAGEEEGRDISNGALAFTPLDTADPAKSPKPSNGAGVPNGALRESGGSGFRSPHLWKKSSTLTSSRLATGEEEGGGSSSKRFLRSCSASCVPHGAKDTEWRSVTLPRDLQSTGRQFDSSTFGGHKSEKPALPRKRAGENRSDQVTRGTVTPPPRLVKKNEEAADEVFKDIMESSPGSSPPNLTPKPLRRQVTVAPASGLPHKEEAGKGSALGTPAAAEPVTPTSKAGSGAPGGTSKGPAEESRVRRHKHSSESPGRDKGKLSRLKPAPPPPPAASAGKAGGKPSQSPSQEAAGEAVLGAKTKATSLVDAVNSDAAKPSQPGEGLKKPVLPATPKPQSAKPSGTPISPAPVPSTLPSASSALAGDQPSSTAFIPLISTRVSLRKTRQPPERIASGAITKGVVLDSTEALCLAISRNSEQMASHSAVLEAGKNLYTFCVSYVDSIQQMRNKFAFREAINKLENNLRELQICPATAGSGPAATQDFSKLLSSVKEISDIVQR
T10 sequence (P37173 23-567): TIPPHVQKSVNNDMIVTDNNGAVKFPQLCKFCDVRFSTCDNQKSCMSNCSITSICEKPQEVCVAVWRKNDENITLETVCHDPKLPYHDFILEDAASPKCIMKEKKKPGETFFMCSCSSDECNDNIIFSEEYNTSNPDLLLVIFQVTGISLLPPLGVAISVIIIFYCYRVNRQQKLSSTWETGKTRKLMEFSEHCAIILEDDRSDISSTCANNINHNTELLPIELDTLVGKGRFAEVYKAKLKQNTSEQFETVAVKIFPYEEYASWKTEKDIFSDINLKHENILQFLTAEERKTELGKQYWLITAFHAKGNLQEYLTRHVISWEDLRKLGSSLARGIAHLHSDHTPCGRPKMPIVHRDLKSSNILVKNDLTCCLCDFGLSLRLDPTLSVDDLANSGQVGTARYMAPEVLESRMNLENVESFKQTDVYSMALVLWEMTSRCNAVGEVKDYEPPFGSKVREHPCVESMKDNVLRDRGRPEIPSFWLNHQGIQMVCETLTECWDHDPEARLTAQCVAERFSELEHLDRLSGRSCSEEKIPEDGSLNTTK
T4 sequence (P28482 whole entry): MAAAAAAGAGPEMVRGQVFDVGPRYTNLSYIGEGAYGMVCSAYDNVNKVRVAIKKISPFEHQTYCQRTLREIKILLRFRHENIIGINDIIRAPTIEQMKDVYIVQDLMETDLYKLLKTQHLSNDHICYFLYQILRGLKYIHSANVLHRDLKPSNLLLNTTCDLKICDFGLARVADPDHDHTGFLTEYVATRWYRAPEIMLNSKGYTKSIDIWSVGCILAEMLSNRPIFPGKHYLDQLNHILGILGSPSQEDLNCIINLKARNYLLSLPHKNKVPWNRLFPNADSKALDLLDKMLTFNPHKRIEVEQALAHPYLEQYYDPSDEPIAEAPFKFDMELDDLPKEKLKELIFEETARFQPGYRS
T3 sequence (Q16539 whole entry): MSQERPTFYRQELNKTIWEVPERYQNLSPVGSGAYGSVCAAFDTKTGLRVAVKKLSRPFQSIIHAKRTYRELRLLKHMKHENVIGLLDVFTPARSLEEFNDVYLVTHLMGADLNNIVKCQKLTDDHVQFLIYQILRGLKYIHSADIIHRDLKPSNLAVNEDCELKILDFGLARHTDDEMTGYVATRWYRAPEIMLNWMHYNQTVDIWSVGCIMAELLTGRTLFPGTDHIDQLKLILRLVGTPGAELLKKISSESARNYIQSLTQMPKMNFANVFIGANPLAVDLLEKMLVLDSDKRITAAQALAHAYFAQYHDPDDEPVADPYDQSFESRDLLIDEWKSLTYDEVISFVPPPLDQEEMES
T7 sequence (Q9Y2H1 whole entry): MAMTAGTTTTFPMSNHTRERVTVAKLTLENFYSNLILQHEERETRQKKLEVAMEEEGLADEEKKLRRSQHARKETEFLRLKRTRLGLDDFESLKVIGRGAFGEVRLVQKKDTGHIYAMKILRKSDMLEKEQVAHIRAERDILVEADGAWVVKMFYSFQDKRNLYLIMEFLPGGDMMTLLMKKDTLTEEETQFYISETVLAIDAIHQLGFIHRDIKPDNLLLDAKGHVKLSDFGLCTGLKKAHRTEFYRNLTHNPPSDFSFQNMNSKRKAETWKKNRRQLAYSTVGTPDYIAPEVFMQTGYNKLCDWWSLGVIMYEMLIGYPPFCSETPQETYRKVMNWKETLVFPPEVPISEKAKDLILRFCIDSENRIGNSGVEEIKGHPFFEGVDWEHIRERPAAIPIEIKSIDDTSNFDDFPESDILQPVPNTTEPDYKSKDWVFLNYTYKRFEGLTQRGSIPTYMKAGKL

As for `CCN1CCN(Cc2ccc(NC(=O)c3ccc(C)c(NC(=O)c4cncc(-c5cccs5)c4)c3)cc2C(F)(F)F)CC1` [ALW-II-41-27], the remaining binding at 10 µM on KinomeScan kinase panel [1] is greater than 30%; on KinomeScan kinase panel [4] it was greater than 30%; at KinomeScan kinase panel [5], greater than 30%; on KinomeScan kinase panel [6] (setting [11]), 11%; on KinomeScan kinase panel [6] (setting [12]) it was greater than 30%; at KinomeScan kinase panel [7], 11%. Also, the remaining binding at 10 µM worked out at 3.3% at KinomeScan kinase panel [8]; 0.2% at KinomeScan kinase panel [9] (ABL1(F317I)); 4.6% on KinomeScan kinase panel [10] (kinase TGFBR2, 10 µM). Moreover, the “score (%)” value on KinomeScan kinase panel [2] is given as 20%; on KinomeScan kinase panel [3] it was 0%.

As to `CCN1CCN(Cc2ccc(NC(=O)c3ccc(C)c(/C=C/c4cnc5[nH]ccc5c4Cl)c3)cc2C(F)(F)F)CC1` [HG-6-63-01, (E)-3-(2-(4-chloro-1H-pyrrolo[2,3-b]pyridin-5-yl)vinyl)-N-(4-((4-ethylpiperazin-1-yl)methyl)-3-(trifluoromethyl)phenyl)-4-methylbenzamide], the remaining binding at 10 µM at KinomeScan kinase panel [1], at KinomeScan kinase panel [4], at KinomeScan kinase panel [5], on KinomeScan kinase panel [6] (RPS6KA5(Kin.Dom.1)), at KinomeScan kinase panel [6] (RPS6KA5(Kin.Dom.2)) and on KinomeScan kinase panel [7] was greater than 30% in each case. Also, the remaining binding at 10 µM on KinomeScan kinase panel [8] is 0.85%; on KinomeScan kinase panel [9] (ABL1(F317I)), 0.05%; on KinomeScan kinase panel [10] (TGFBR2, 10 µM), 2.8%. For the same compound, the “score (%)” value stood at 4.2% on KinomeScan kinase panel [2] and 0.15% at KinomeScan kinase panel [3].

With `CCN1CCN(Cc2ccc(NC(=O)c3ccc(C)c(C#Cc4cccnc4)c3)cc2C(F)(F)F)CC1` [XMD15-44], the remaining binding at 10 µM at KinomeScan kinase panel [1] was 100%; at KinomeScan kinase panel [4] it was greater than 30%; at KinomeScan kinase panel [5], greater than 30%; on KinomeScan kinase panel [6] (setting [11]) it was 59%; at KinomeScan kinase panel [6] (setting [12]), 100%; at KinomeScan kinase panel [7], 8.7%. For the same compound, the remaining binding at 10 µM on KinomeScan kinase panel [8] turned out to be 0.5%; on KinomeScan kinase panel [9] (ABL1(F317I)-nonphosphorylated), 8.8%; at KinomeScan kinase panel [9] (ABL1(F317I)-phosphorylated) it was 4%; at KinomeScan kinase panel [10] (kinase TGFBR2, 10 µM), 1.3%. For the same compound, the “score (%)” value on KinomeScan kinase panel [2] is on record as 2.6%; on KinomeScan kinase panel [3] it was 0%.
